Experiments:
[1] = target: Indoleamine 2,3-dioxygenase 1 (Homo sapiens, UniProt P14902); assay: (§1) Biochemical Coupled Assay: Recombinant human IDO or TDO was incubated in 50 mM KPO4 (pH 7.0), 0.5 mM EGTA, 0.5 mM EDTA, 0.05% Triton™ X100, 20 mM ascorbate, 10 μM methylene blue, 500 U/ml catalase, 50 μg/ml KynB (kynurenine formamidase). TDO assays were carried out in the presence of 330 μM L-tryptophan, while IDO assays had the addition of 45 μM L-tryptophan. After incubation for 17 minutes at room temperature the reactions were stopped by the addition of Erhlich's reagent and incubated at room temperature for 5 minutes before the fluorescence was read.
[2] = target: Tryptophan 2,3-dioxygenase (Homo sapiens, UniProt P48775); assay: as §1
Chain of Tryptophan 2,3-dioxygenase (P48775 whole entry): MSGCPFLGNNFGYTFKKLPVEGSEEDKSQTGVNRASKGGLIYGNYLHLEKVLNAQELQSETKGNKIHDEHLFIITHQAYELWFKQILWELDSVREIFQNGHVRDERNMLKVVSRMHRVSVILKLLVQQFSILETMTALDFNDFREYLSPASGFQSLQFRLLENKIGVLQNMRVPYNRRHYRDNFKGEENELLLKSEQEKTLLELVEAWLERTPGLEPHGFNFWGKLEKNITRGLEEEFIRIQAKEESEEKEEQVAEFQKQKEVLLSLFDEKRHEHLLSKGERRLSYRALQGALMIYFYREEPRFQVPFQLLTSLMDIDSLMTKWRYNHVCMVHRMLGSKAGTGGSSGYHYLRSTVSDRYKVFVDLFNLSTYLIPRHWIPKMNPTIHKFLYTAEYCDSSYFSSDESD

Chain of Indoleamine 2,3-dioxygenase 1 (P14902 whole entry): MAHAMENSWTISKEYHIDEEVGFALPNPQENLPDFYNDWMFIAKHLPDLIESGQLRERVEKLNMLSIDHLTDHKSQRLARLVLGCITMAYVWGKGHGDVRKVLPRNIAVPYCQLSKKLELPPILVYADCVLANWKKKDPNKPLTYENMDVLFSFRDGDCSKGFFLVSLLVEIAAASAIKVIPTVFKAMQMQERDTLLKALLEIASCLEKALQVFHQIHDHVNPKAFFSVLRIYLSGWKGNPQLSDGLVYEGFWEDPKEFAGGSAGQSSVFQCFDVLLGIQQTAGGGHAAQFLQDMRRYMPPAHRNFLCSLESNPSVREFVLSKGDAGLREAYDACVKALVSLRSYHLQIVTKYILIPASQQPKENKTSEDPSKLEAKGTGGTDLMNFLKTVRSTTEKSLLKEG

CC1(C)CN(c2cc(Cl)cc3cncn23)CCC12NC(=O)NC2=O (configuration not stated)
IC50 [1]: 148 nM | IC50 [2]: 1590 nM
